15 compounds from publication PMC12374030, “Hydroxyalkyne–Bithiophene Derivatives: Synthesis and Antileishmanial Activity” (Chemical Biology & Drug Design, 2025) can be followed below.

Molecules are shown by their SMILES. *1 amine or outer side, *2 acyl side, *3 side chain or, on linkers, in order; H or OH if unused. Where a SMILES comes first, the peptide text is derived from it. Bridges are numbered along the chain shown (N, C = ends). Roman numbers before positions name the chains, in order. [ ]: non-standard residue; d: D form. Actinocin(9to1) = Cc1c2oc3c(C)ccc(C(=O)[*:1])c3nc-2c(C(=O)[*:2])c(N)c1=O; NMeV = CN[C@H](C(=O)O)C(C)C; Sar = CNCC(=O)O

What is called CC50 is the concentration giving 50% cytotoxicity. By IC50 is commonly meant the point on the concentration scale where inhibition reaches its midpoint.

Data set [1] in a line: Cytotoxicity assay in macrophages (MTT). In kind it is cell-based. The settings on record: mouse, J774A.1 macrophages, pH 7.2. The protocol:
L. amazonensis MHOM/BR/75/Josefa strain was originally isolated from a human case of CL by Dr. Cesar A. Cuba at the University of Brasilia, Brazil (Saraiva et al. [1983]; Cuba et al. [1985]). Promastigote forms of this strain were maintained axenically in Warren's medium (brain–heart infusion plus hemin and folic acid; pH 7.2) supplemented with 10% heat‐inactivated FBS and maintained at 25°C. J774A.1 macrophages (obtained from the Cell Bank of Rio de Janeiro, RJ, Brazil) were maintained in RPMI‐1640 medium (pH 7.2), supplemented with sodium bicarbonate, L‐glutamine, 10% FBS, and streptomycin and penicillin at 37°C in a 5% CO2 atmosphere.
Cytotoxicity was evaluated in the J774A.1 macrophages. Macrophages (5 × 10^5 cells mL^−1) were cultured in 96‐well microplates containing RPMI‐1640 medium supplemented with 10% FBS. The plates were incubated at 37°C in a 5% CO2 atmosphere for confluent growth of the cells. After 24 h, the compounds were added to each well at increasing concentrations (31.25–1000 μM) and incubated for 48 h at 37°C in a 5% CO2 atmosphere. The cytotoxicity was evaluated by MTT (2 mg mL^−1), as previously described (Mosmann [1983]). Absorbance was read in a microplate spectrophotometer (PowerWave XS; BioTek, […], VT, USA) at 570 nm.

The test system of data set [2] is L. amazonensis promastigote forms. Kind of data set: Antiproliferative assay (XTT). In kind it is cell-based, Leishmania amazonensis. The settings on record: for IC50: Leishmania amazonensis, 72 h, 25°C, XTT, read-out: L. amazonensis (promastigotes) IC50; for Selectivity index (SI): ratio between the CC50 (J774A.1 macrophages) and IC50 (promastigotes). The protocol: L. amazonensis MHOM/BR/75/Josefa strain was originally isolated from a human case of CL by Dr. […]. Cuba at the University of Brasilia, Brazil (Saraiva et al. [1983]; Cuba et al. [1985]). […] The activity against promastigotes was evaluated by XTT (0.5 mg mL^-1), as previously described (Meshulam et al. [1995]). Absorbance was read in a microplate spectrophotometer (PowerWave XS; BioTek, Winooski, VT, USA) at 450 nm.
Background: Formazan colour is commonly taken as a measure of viable cells.

The subject of data set [3] is L. amazonensis promastigotes. Kind of data set: Cell membrane integrity (PI, flow cytometry). It counts as cell-based, Leishmania amazonensis. The settings on record: positive control, 40 μM, 5 min. The procedure:
Promastigotes at 1 × 10^6 parasites mL^−1 treated with BT‐1 for 24 h were incubated with 0.2 μg mL^−1 PI for 10 min. As a positive control, 40 μM digitonin was used. The data acquisition and analysis were performed using a FACSCalibur flow cytometer (BD Biosciences, Franklin Lakes, NJ, USA) equipped with CellQuest software. A total of 10,000 events were acquired in the region that corresponded to the parasites. Alterations in PI fluorescence were quantified as the percentage increase in fluorescence compared with the untreated parasites (Lazarin‐Bidóia et al. [2013]).

Data set [4] deals with L. amazonensis promastigotes. Kind of data set: Mitochondrial membrane potential (Rh123, flow cytometry). The settings on record: 24 h. In kind it is cell-based, Leishmania amazonensis. The procedure: Promastigotes at 1 × 10^6 parasites mL^−1 treated with BT‐1 for 24 h were incubated with 5 μg mL^−1 Rh123, a fluorescent probe that accumulates in mitochondria, for 15 min (Menna‐Barreto, Corrêa, et al. [2009]; Menna‐Barreto, Goncalves, et al. [2009]). As a positive control, 100 μM CCCP was used. The data acquisition and analysis were performed using a FACSCalibur flow cytometer (BD Biosciences, Franklin Lakes, NJ, USA) equipped with CellQuest software. A total of 10,000 events were acquired in the region corresponding to the parasites.

The subject of data set [5] is L. amazonensis promastigotes. Kind of data set: Cell size (FSC-H, flow cytometry). In kind it is cell-based, Leishmania amazonensis. Set-up: reduction in cell size: dose or concentration left out as unconfirmed. The settings on record: positive control, 24 h. The protocol: Promastigotes at 1 × 10^6 parasites mL^−1 treated with BT‐1 for 24 h were washed twice and resuspended in phosphate‐buffered saline (PBS), then analyzed using a FACSCalibur flow cytometer (BD Biosciences, Franklin Lakes, NJ, USA) equipped with CellQuest software. As a positive control, […] actinomycin D was used. A total of 10,000 events were acquired in the region that corresponded to the parasites. Histograms were generated for each sample, where the forward light scatter (FSC‐H) represents the cell volume (Lazarin‐Bidóia et al. [2013]).
(A flow cytometer gives signals particle by particle.)

Data set [6] has as its system L. amazonensis promastigotes. Kind of data set: Cell cycle (PI-RNAse A, flow cytometry). In kind it is cell-based, Leishmania amazonensis. The settings on record: positive control, 40 μM, 24 h. The protocol:
Promastigotes at 1 × 10^6 parasites mL^−1 treated with BT‐1 for 24 h were fixed in 70% cold methanol in PBS at 4°C for 2 h. Afterward, the parasites were washed in PBS, 10 μg mL^−1 PI‐RNAse A was added, and the samples were incubated at 37°C for 45 min. The data acquisition and analysis were performed using a FACSCalibur flow cytometer (BD Biosciences, Franklin Lakes, NJ, USA) equipped with CellQuest software. A total of 10,000 events were acquired in the region that corresponded to the parasites. As a positive control, 40 μM miltefosine was used. The percentages of cells in each stage of the cell cycle were determined based on the intensity of the PI fluorescence, which is directly proportional to the DNA content.

Data set [7] has as its system L. amazonensis promastigotes. Kind of data set: Lipid peroxidation assay (DPPP). In kind it is cell-based, Leishmania amazonensis. The settings on record: positive control, 50 μM. The protocol: Promastigotes at 1 × 10^6 parasites mL^−1 treated with BT‐1 for 24 h were incubated with 50 μM DPPP for 15 min at 22°C. As a positive control, 50 μM H2O2 was used. The fluorescence was determined in a Victor X3 spectrofluorimeter (PerkinElmer, Waltham, MA, USA) at λex of 355 nm and λem of 460 nm. DPPP is essentially nonfluorescent until it is oxidized to a phosphine oxide (DPPP‐O) by peroxides (Okimoto et al. [2000]).

The subject of data set [8] is L. amazonensis promastigotes. Kind of data set: Reactive oxygen species production (H2DCFDA). In kind it is cell-based, Leishmania amazonensis. The settings on record: positive control, 50 μM. The procedure: Promastigotes at 1 × 10^6 parasites mL^−1 treated with BT‐1 for 24 h were incubated with 10 μM H2DCFDA in the dark for 45 min. As a positive control, 50 μM H2O2 was used. The fluorescence was determined by oxidation of H2DCFDA to the fluorescent product, 2′‐7ʹ dichlorofluorescein (DCF), which was measured in a Victor X3 spectrofluorimeter (PerkinElmer, Waltham, MA, USA) at λex of 488 nm and λem of 530 nm (Shukla et al. [2012]).

`CC(C)(O)C#Cc1ccc(-c2ccc(/C=N/NC(N)=S)s2)s1` [Compound 3d]: in data set [1], the CC50 at 48 h worked out at 220 ± 3.8 µM. Further, in data set [2], the IC50 amounted to 39.5 ± 5.1 µM and the “Selectivity index (SI)” value was 5.56.
Regarding `C[C@@H]1CC[C@@]2(OC1)O[C@H]1[C@@H](O)[C@H]3[C@@H]4CC[C@H]5C[C@@H](O[C@@H]6O[C@H](CO)[C@H](O[C@@H]7O[C@H](CO)[C@@H](O)[C@H](O[C@@H]8OC[C@@H](O)[C@H](O)[C@H]8O)[C@H]7O[C@@H]7O[C@H](CO)[C@H](O)[C@H](O[C@@H]8O[C@H](CO)[C@@H](O)[C@H](O)[C@H]8O)[C@H]7O)[C@H](O)[C@H]6O)[C@H](O)C[C@]5(C)[C@H]4CC[C@]3(C)[C@H]1[C@@H]2C` [Digitonin, digitonin, reference compound], in data set [3], the “increase of PI-stained cells” value is 3.10 fold.
As to `N#CC(C#N)=NNc1cccc(Cl)c1` [CCCP, carbonyl cyanide m‐chlorophenylhydrazone, reference compound], the “Mitochondrial potential: Average (Median)” value in data set [4] (positive control 100 μM, Rh123 fluorescence) is 6.38. In data set [4] (positive control, 100 μM), the “reduction in the mitochondrial membrane potential” value was found to be 342.8 fold.
Take `CC(C)N=Cc1ccc(-c2ccc(C#CC(C)(C)O)s2)s1` [Compound 3a]: the CC50 at 48 h in data set [1] was found to be 281 ± 6.2 µM. In addition, in data set [2], the IC50 was determined as 49.5 ± 3.1 µM and the “Selectivity index (SI)” value amounted to 5.68.
Consider `CCCCN=Cc1ccc(-c2ccc(C#CC(C)(C)O)s2)s1` [Compound 3b], for which the midpoint of cytotoxicity in data set [1], the CC50 at 48 h, lay at 296 ± 4.1 µM. Moreover, in data set [2], the IC50 amounted to 55.3 ± 5.1 µM and the “Selectivity index (SI)” value is 5.34.
For the compound `Cc1c2oc3c(C)ccc(C(=O)N[C@@H]4C(=O)N[C@H](C(C)C)C(=O)N5CCC[C@H]5C(=O)N(C)CC(=O)N(C)[C@@H](C(C)C)C(=O)O[C@@H]4C)c3nc-2c(C(=O)N[C@@H]2C(=O)N[C@H](C(C)C)C(=O)N3CCC[C@H]3C(=O)N(C)CC(=O)N(C)[C@@H](C(C)C)C(=O)O[C@@H]2C)c(N)c1=O` [Actinomycin D, reference compound] (I: T[dV]P[Sar][NMeV] / II: T[dV]P[Sar][NMeV]; ester I:1-I:C, II:1-II:C; linker I:N-II:N via Actinocin(9to1)), in data set [5], the “reduction in cell size” value is recorded as 2.05 fold.
On to `CCCCCCCCCCCCCCCCOP(=O)([O-])OCC[N+](C)(C)C` [Miltefosine, miltefosine, reference compound], for which the “increase of cells in sub-G0 phase compared with the untreated control” value in data set [6] worked out at 12.33 fold.
In the case of `O=Cc1ccc(-c2ccc(C#CCCO)s2)s1` [Compound 2, 5′‐(4‐hydroxy‐but‐1‐ynyl)‐[2,2′]bithiophenyl‐5‐carbaldehyde], the CC50 at 48 h in data set [1] is 198 ± 3.9 µM. Besides, in data set [2], the IC50 worked out at 25.1 ± 0.8 µM and the “Selectivity index (SI)” value was 7.90.
In the same order, the values of `CC(C)(O)C#Cc1ccc(-c2ccc(C=O)s2)s1` [Compound 3, 5′‐(3‐hydroxy‐3‐methyl‐but‐1‐ynyl)‐[2,2′]bithiophenyl‐5‐carbaldehyde] are 283 ± 6.7 µM, 94 ± 4.2 µM and 3.00.
In data set [1], `NC(=S)NN=Cc1ccc(-c2ccc(C#CCCO)s2)s1` [Compound 2d] returned a CC50 at 48 h of 224 ± 4.9 µM. Further, in data set [2], the IC50 amounted to 41.4 ± 0.6 µM and the “Selectivity index (SI)” value came to 5.42.
Regarding `CC(C)N=Cc1ccc(-c2ccc(C#CCCO)s2)s1` [Compound 2a], in data set [1], half-maximal cytotoxicity (CC50 at 48 h) was put at 289 ± 6.5 µM. Also, in data set [2], the IC50 is 44.1 ± 2 µM and the “Selectivity index (SI)” value came to 6.56.
The corresponding values for `CC(C)(O)C#Cc1ccc(-c2ccc(C=NC3CCCCC3)s2)s1` [Compound 3c] are 238.5 ± 1.9 µM, 40.1 ± 1.1 µM and 5.95.
In turn, `OO` [Compound H2O2, reference compound] showed an increase in lipoperoxidation in data set [7] of 3.6 fold. In addition, the “increase in the production of ROS” value in data set [8] is on record as 3.5 fold.
As to `CCCCN=Cc1ccc(-c2ccc(C#CCCO)s2)s1` [Compound 2b], in data set [1], half-maximal cytotoxicity (CC50 at 48 h) was put at 274 ± 5.2 µM. For the same compound, in data set [2], the IC50 was 48.5 ± 4.2 µM and the “Selectivity index (SI)” value is 5.65.
The compound `OCCC#Cc1ccc(-c2ccc(C=NC3CCCCC3)s2)s1` [Compound 2c] showed a CC50 at 48 h in data set [1] of 271 ± 2.8 µM. In data set [2], the IC50 came to 51.2 ± 1.5 µM and the “Selectivity index (SI)” value is recorded as 5.28.
